SMILES strings stand for the structures. Read-outs that look alike come from different tables or passages of the source. Marks after values point to notes of the source that are not given here.

We go through five compounds from patent US6359001B1, “Use of α-methyl-p-tyrosine to inhibit melanin production in iris melanocytes” (Pharmacia AB, priority 1997, dated 2002).

The subject of one data set is monkey iris. Particulars: cited from earlier work.
For the next data set, the system named is iris. Conditions: cited from earlier work.
Data set [1] relates to uveal melanocytes. As to the kind of experiment: Melanin content of cultured uveal (iris) melanocytes. Format: cell-based. Conditions: for Melanin content: growth stage. The method, then:
(§1) Uveal melanocytes were isolated and cultured from adult donor eyes. The iris was excised and placed in a dish with the posterior surface upward. The iris pigment epithelium was separated from the stroma after immersion in 0.25% trypsin solution (Gibco, USA) at 37° C. for 2 hour. The remaining iris stroma was placed in a 0.25% trypsin solution at 4° C. for 18 hours, followed by incubation at 37° C. for 1 hour. The isolated cells were collected. The trypsin solution was replaced by collagenase solution (400 U/ml, in F-12 medium, Sigma, USA) and incubated at 37° C. The collagenase solution was replaced, and the cells were collected, centrifuged, resuspended, and plated each hour for 3 hours.
(§2) The isolated uveal melanocytes were cultured in Falcon culture dishes (Becton Dickinson, USA) with FIC medium, which consisted of F-12 medium supplemented with 10% fetal bovine serum, 2 mM glutamine (all from Gibco), 10 ng/ml cholera toxin, 0.1 mM isobutylmethylxanthine, 50 μg/ml gentamicin (all from Sigma), and 20 ng/ml basic fibroblast growth factor (Promega, USA). The culture dishes were incubated in a humidified 5% CO2 atmosphere. The medium was changed three times a week. Geneticin (Sigma, USA); a cytotoxic agent, was added (100 μg/ml) for 3 to 7 days when necessary.
(§3) The 8 cell strains of uveal melanocytes used in the present study were isolated from donors with different iris color (brown and brown-blue).
(§4) Cultured uveal melanocytes were detached by trypsin-EDTA solution and counted in a hemocytometer, the cell suspensions were centrifuged, and the pellet was dissolved in 1 N NaOH. Melanin concentration was determined by measurement of optical density at 475 nm and compared with a standard curve obtained using synthetic melanin (Sigma). Melanin content was expressed as ng/cell.

The subject of data set [2] is uveal melanocytes. The data set is described as follows: Melanin production of cultured uveal (iris) melanocytes. It counts as cell-based. Particulars: for Melanin production: growth stage; for Melanin production by iris melanocytes (summary in words): in vitro experiments. The method, then: as §1, §2, §3, §4
Melanin production was calculated by determining the melanin content and the cell counts at the beginning and the end of each generation by the following formula: […]
where C0 and Ct represent the melanin content per cell at times 0 and time t, respectively; P is the population increase during time t, D is the doubling time of the uveal melanocytes; and Cp is melanin production per cell per day during time t.

A further data set concerns the target T1, tyrosinase (Homo sapiens, UniProt P14679).
T1 construct: endogenous in cells; host or cells: primary uveal (iris) melanocyte cell strains from donor eyes (brown and brown-blue irises)
T1 sequence (P14679 19-529): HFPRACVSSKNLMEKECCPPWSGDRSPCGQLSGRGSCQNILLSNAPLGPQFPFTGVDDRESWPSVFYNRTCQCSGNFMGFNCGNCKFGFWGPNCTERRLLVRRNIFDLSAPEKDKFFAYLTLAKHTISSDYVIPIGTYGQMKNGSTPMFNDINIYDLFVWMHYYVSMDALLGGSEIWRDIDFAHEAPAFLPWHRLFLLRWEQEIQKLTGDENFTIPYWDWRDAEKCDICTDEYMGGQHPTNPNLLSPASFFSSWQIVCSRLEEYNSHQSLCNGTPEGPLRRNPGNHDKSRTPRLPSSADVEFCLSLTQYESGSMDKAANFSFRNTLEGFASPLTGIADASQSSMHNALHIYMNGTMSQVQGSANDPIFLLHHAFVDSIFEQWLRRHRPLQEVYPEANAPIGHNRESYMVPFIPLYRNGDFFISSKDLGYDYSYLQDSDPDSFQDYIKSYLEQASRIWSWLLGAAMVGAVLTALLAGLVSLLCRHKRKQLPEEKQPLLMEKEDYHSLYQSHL
As to the kind of experiment: Tyrosinase activity in uveal melanocyte cell strains (adapted Pomerantz method, 3H2O release). Particulars: for Tyrosinase activity: growth stage. Format: cell-based. As to the method: as §1, §2, §3
Tyrosinase activity was evaluated in nine cell strains using an adaptation of the Pomerantz method, which is based on the measurement of ^3H2O released by the enzymatic hydroxylation of tyrosine.

The conditions of data set [3]: clinical concentrations for the treatment of pheocromocytoma; cited from earlier work.
Where [4] appears, read: 3 cell strains (brown-blue), latanoprost 10^−5 M, no α-methyl-p-tyrosine.
Setting [5] is: 3 cell strains (brown-blue), latanoprost 10^−6 M, no α-methyl-p-tyrosine.
The mark [6] stands for this setting: 3 cell strains (brown-blue), latanoprost 10^−7 M, no α-methyl-p-tyrosine.
The mark [7] stands for this setting: 3 cell strains (brown-blue), latanoprost 10^−8 M, no α-methyl-p-tyrosine.
[8] abbreviates: 5 cell strains (brown), latanoprost 10^−5 M, no α-methyl-p-tyrosine.
Where [9] appears, read: 5 cell strains (brown), latanoprost 10^−6 M, no α-methyl-p-tyrosine.
[10] abbreviates: 5 cell strains (brown), latanoprost 10^−7 M, no α-methyl-p-tyrosine.
Setting [11] is: 5 cell strains (brown), latanoprost 10^−8 M, no α-methyl-p-tyrosine.
[12] abbreviates: brown and brown-blue iris strains, latanoprost at the highest molar concentrations.
Where [13] appears, read: 3 cell strains (brown-blue), α-methyl-p-tyrosine 10^−5, no latanoprost.
Where [14] appears, read: 3 cell strains (brown-blue), α-methyl-p-tyrosine 10^−5 with latanoprost 10^−5 M.
[15] abbreviates: 3 cell strains (brown-blue), α-methyl-p-tyrosine 10^−5 with latanoprost 10^−6 M.
The mark [16] stands for this setting: 3 cell strains (brown-blue), α-methyl-p-tyrosine 10^−5 with latanoprost 10^−7 M.
[17] abbreviates: 3 cell strains (brown-blue), α-methyl-p-tyrosine 10^−5 with latanoprost 10^−8 M.
Setting [18] is: 5 cell strains (brown), α-methyl-p-tyrosine 10^−5, no latanoprost.
Setting [19] is: 5 cell strains (brown), α-methyl-p-tyrosine 10^−5 with latanoprost 10^−5 M.
[20] abbreviates: 5 cell strains (brown), α-methyl-p-tyrosine 10^−5 with latanoprost 10^−6 M.
Setting [21] is: 5 cell strains (brown), α-methyl-p-tyrosine 10^−5 with latanoprost 10^−7 M.
[22] abbreviates: 5 cell strains (brown), α-methyl-p-tyrosine 10^−5 with latanoprost 10^−8 M.
Setting [23] is: α-methyl-p-tyrosine 10^−5 M added with latanoprost 10^−7 to 10^−5 M, brown and brown-blue irises.

Regarding `CCCCC[C@H](O)/C=C/[C@H]1[C@H](O)CC(=O)[C@@H]1C/C=C\CCCC(=O)O` [PGE2], the “Pigmentation of the monkey iris” value in the data set on monkey iris (chronic treatment) is given as “increased pigmentation”.
As for `CCCCC[C@H](O)/C=C/[C@@H]1[C@@H](C/C=C\CCCC(=O)O)[C@@H](O)C[C@H]1O` [PGF2α], the “Pigmentation of the monkey iris” value in the data set on monkey iris (monkey, in vivo) is “increased pigmentation”.
For `CCCCCCCC(=O)CC[C@@H]1[C@@H](C/C=C\CCCC(=O)OC(C)C)[C@@H](O)C[C@H]1O` [isopropyl unoprostone, 13,14-dihydro-15-keto-20-ethyl-PGF2α isopropylester], the “Iris colour change in patients” value in the data set with iris (human, in vivo) was “darkening of the iris”.
In the case of `CC(C)OC(=O)CCC/C=C\C[C@@H]1[C@@H](CC[C@@H](O)CCc2ccccc2)[C@H](O)C[C@@H]1O` [latanoprost, 13,14-dihydro-17-phenyl-18,19,20-tri-nor-PGF2αisopropyl ester], the “Pigmentation of the monkey iris” value in the data set on monkey iris (chronic treatment) is recorded as “increased pigmentation”. The Melanin content with uveal melanocytes [1] (setting [4]) was 0.0151* ng/cell; with uveal melanocytes [1] (setting [5]), 0.0149* ng/cell; in the data set with uveal melanocytes [1] (setting [6]), 0.0142* ng/cell; in the data set with uveal melanocytes [1] (setting [7]), 0.0127 ng/cell; with uveal melanocytes [1] (setting [8]) it was 0.0149* ng/cell; in the data set on uveal melanocytes [1] (setting [9]), 0.0161* ng/cell. Besides, the values for the Melanin content with uveal melanocytes [1] (setting [10]) and in the data set with uveal melanocytes [1] (setting [11]) were 0.0151 ng/cell and 0.0141 ng/cell, respectively. In addition, the “Melanin content (in words)” value in the data set on uveal melanocytes [1] (setting [12]) is “increased”. Besides, the Melanin production in the data set on uveal melanocytes [2] (setting [4]) is 0.0067* ng/cell/day; in the data set with uveal melanocytes [2] (setting [5]), 0.0056* ng/cell/day; with uveal melanocytes [2] (setting [6]), 0.0046* ng/cell/day; in the data set on uveal melanocytes [2] (setting [7]), 0.0038 ng/cell/day; with uveal melanocytes [2] (setting [8]), 0.0047* ng/cell/day; in the data set with uveal melanocytes [2] (setting [9]), 0.0036 ng/cell/day. Also, the Melanin production with uveal melanocytes [2] (setting [10]) was 0.0046* ng/cell/day; in the data set on uveal melanocytes [2] (setting [11]), 0.0038 ng/cell/day. Moreover, the “Melanin production (in words)” value in the data set on uveal melanocytes [2] (setting [12]) was “increased”. Moreover, the Tyrosinase activity is reported as 62.7* units on tyrosinase (setting [4]); 52.5* units on tyrosinase (setting [5]); 48.1* units at tyrosinase (setting [6]); 33.7 units on tyrosinase (setting [7]); 63.1* units at tyrosinase (setting [8]); 42.5 units on tyrosinase (setting [9]). Also, the Tyrosinase activity at tyrosinase (setting [10]) is 38.3 units; at tyrosinase (setting [11]), 36.7 units. The “Tyrosinase activity (in words)” value on tyrosinase (setting [12]) is on record as “increased”. In the data set on iris (chronic therapy, sometimes noted), the “Iris colour change in patients” value is listed as “darkening of the iris”.
As for `CC(N)(Cc1ccc(O)cc1)C(=O)O` (stereo not drawn) [α-methyl-p-tyrosine, α-methyl-para-tyrosine], in data set [3], the “Catecholamine concentration in the body” value is “markedly reduced”. Moreover, the Melanin content with uveal melanocytes [1] (setting [13]) came to 0.0122 ng/cell; with uveal melanocytes [1] (setting [14]), 0.0128 ng/cell; with uveal melanocytes [1] (setting [15]), 0.0125 ng/cell; in the data set with uveal melanocytes [1] (setting [16]), 0.0123 ng/cell; with uveal melanocytes [1] (setting [17]), 0.0119 ng/cell; with uveal melanocytes [1] (setting [18]), 0.0133 ng/cell. Further, the Melanin content in the data set on uveal melanocytes [1] (setting [19]) is 0.0131 ng/cell; in the data set with uveal melanocytes [1] (setting [20]), 0.0137 ng/cell; in the data set on uveal melanocytes [1] (setting [21]), 0.0136 ng/cell; in the data set on uveal melanocytes [1] (setting [22]) it was 0.0135 ng/cell. In addition, the “Melanin content (in words)” value in the data set on uveal melanocytes [1] (setting [23]) is given as “significant decrease”. For the same compound, the Melanin production with uveal melanocytes [2] (setting [13]) was 0.0023 ng/cell/day; with uveal melanocytes [2] (setting [14]), 0.0031 ng/cell/day; in the data set with uveal melanocytes [2] (setting [15]) it was 0.0029 ng/cell/day; in the data set on uveal melanocytes [2] (setting [16]), 0.0029 ng/cell/day; in the data set on uveal melanocytes [2] (setting [17]), 0.0025 ng/cell/day; in the data set on uveal melanocytes [2] (setting [18]), 0.0033 ng/cell/day. The Melanin production with uveal melanocytes [2] (setting [19]) is given as 0.0031 ng/cell/day; in the data set on uveal melanocytes [2] (setting [20]), 0.0029 ng/cell/day; in the data set with uveal melanocytes [2] (setting [21]), 0.0039 ng/cell/day; in the data set with uveal melanocytes [2] (setting [22]), 0.0035 ng/cell/day. In addition, the “Melanin production by iris melanocytes (summary in words)” value in the data set on uveal melanocytes [2] was “inhibited”; in the data set with uveal melanocytes [2] (listed as α-methyl-para-tyrosine), “significantly reduced”. Besides, the “Melanin production (in words)” value in the data set with uveal melanocytes [2] (setting [23]) is “significant decrease”. For the same compound, the Tyrosinase activity on tyrosinase (setting [13]) stood at 32.4 units; at tyrosinase (setting [14]) it was 39.5 units; on tyrosinase (setting [15]), 34.6 units; at tyrosinase (setting [16]) it was 31.7 units; on tyrosinase (setting [17]), 34.6 units; at tyrosinase (setting [18]), 33.6 units. For the same compound, the Tyrosinase activity at tyrosinase (setting [19]) was 31.5 units; at tyrosinase (setting [20]), 34.6 units; at tyrosinase (setting [21]), 38.7 units; on tyrosinase (setting [22]), 35.5 units. Besides, the “Tyrosinase activity (in words)” value at tyrosinase (setting [23]) is recorded as “significant decrease”.
